Data published in ChEMBL document CHEMBL5512696, “Discovery of a Novel ASM Direct Inhibitor with a 1,5-Diphenyl-pyrazole Scaffold and Its Antidepressant Mechanism of Action” (J Med Chem, 2024).
Active and inactive are the calls of the source. The rule behind the calls is not given here.

What was measured:
[1] = Neurotoxicity against human SH-SY5Y cells assessed as cell survival rate at 5 to 20 uM by CCK-8 assay relative to control; type: toxicity, cell-based; settings: dose 5-20 µM, read-out: Survival
[2] = system: SH-SY5Y; test: Neuroprotective activity against corticosterone induced human SH-SY5Y cells assessed as protection against corticosterone induced cell damage measured after 24 hrs by CCK-8 assay; type: functional, cell-based; settings: dose 5-20 µM
[3] = Metabolic stability in human liver microsomes assessed as half life at 1 uM incubated for 60 mins by LC-MS/MS analysis; type: ADME, Microsome
[4] = Metabolic stability in human liver microsomes assessed as intrinsic clearance at 1 uM incubated for 60 mins by LC-MS/MS analysis; type: ADME, Microsome; settings: read-out: CLH
[5] = Half life in male ICR mouse at 1 mg/kg, iv measured upto 480 mins by LC-MS/MS analysis; type: ADME, organism-based; settings: in vivo, 8 h
[6] = Tmax in male ICR mouse at 1 mg/kg, iv measured upto 480 mins by LC-MS/MS analysis; type: ADME, organism-based; settings: in vivo
[7] = Cmax in male ICR mouse at 1 mg/kg, iv measured upto 480 mins by LC-MS/MS analysis; type: ADME, organism-based; settings: in vivo
[8] = AUC (0 to t) in male ICR mouse at 1 mg/kg, iv measured upto 480 mins by LC-MS/MS analysis; type: ADME, organism-based; settings: in vivo
[9] = AUC (0 to infinity) in male ICR mouse at 1 mg/kg, iv measured upto 480 mins by LC-MS/MS analysis; type: ADME, organism-based; settings: in vivo, 8 h
[10] = Observed MRT (0 to infinity) in male ICR mouse at 1 mg/kg, iv measured upto 480 mins by LC-MS/MS analysis; type: ADME, organism-based; settings: in vivo
[11] = Observed apparent volume of distribution in male ICR mouse at 1 mg/kg, iv measured upto 480 mins by LC-MS/MS analysis; type: ADME, organism-based; settings: in vivo, 8 h
[12] = Bioavailability in male ICR mouse at 1 mg/kg, iv measured upto 480 mins by LC-MS/MS analysis; type: ADME, organism-based; settings: in vivo
[13] = AUC (0 to infinity) in male ICR mouse at 10 mg/kg, ip measured upto 480 mins by LC-MS/MS analysis; type: ADME, organism-based; settings: in vivo
[14] = AUC (0 to t) in male ICR mouse at 10 mg/kg, ip measured upto 480 mins by LC-MS/MS analysis; type: ADME, organism-based; settings: in vivo
[15] = Cmax in male ICR mouse at 10 mg/kg, ip measured upto 480 mins by LC-MS/MS analysis; type: ADME, organism-based; settings: in vivo
[16] = Half life in male ICR mouse at 10 mg/kg, ip measured upto 480 mins by LC-MS/MS analysis; type: ADME, organism-based; settings: in vivo
[17] = Observed MRT (0 to infinity) in male ICR mouse at 10 mg/kg, ip measured upto 480 mins by LC-MS/MS analysis; type: ADME, organism-based; settings: in vivo
[18] = Drug concentration in male ICR mouse plasma at 1 mg/kg, iv measured after 30 mins by LC-MS/MS analysis; type: ADME, organism-based
[19] = Drug concentration in male ICR mouse brain at 1 mg/kg, iv measured after 60 mins by LC-MS/MS analysis; type: ADME, organism-based; settings: read-out: Ct
[20] = Ratio of drug concentration in male ICR mouse brain to plasma at 1 mg/kg, iv measured after 30 mins by LC-MS/MS analysis; type: ADME, organism-based; settings: read-out: BPR
[21] = Ratio of drug concentration in male ICR mouse brain to plasma at 1 mg/kg, iv measured after 60 mins by LC-MS/MS analysis; type: ADME, organism-based; settings: read-out: BPR
[22] = system: Mus musculus; test: Improvement in depression-like behavior in ICR mouse model of chronic unpredictable mild stress assessed as reduction in immobility time at 6 to 24 mg/kg, ip administered once a day for 10 days post 8 week of chronic unpredictable mild stress by tail suspension test; type: functional, organism-based; settings: dose 6-24 mg/kg, time 10.0 day
[23] = system: Mus musculus; test: Improvement in depression-like behavior in ICR mouse model of chronic unpredictable mild stress assessed as increase in total distance traveled in center at 6 to 24 mg/kg, ip administered once a day for 10 days post 8 week of chronic unpredictable mild stress by open field test; type: functional, organism-based; settings: dose 6-24 mg/kg, time 10.0 day
[24] = system: Mus musculus; test: Antidepressant activity in ICR mouse model of chronic unpredictable mild stress assessed as downregulation of neuronal apoptosis by measuring improvement in Bcl-2/Bax ratio in hippocampus at 6 to 24 mg/kg, ip administered once a day for 1 week post 8 week of chronic unpredictable mild stress and measured after 1 week by Western blot analysis; type: functional, organism-based; settings: dose 6-24 mg/kg, time 2.0 weeks
[25] = system: Mus musculus; test: Antidepressant activity in ICR mouse model of chronic unpredictable mild stress assessed as downregulation of neuronal apoptosis by measuring increase in BDNF protein level in hippocampus at 6 to 24 mg/kg, ip administered once a day for 1 week post 8 week of chronic unpredictable mild stress and measured after 1 week by Western blot analysis; type: functional, organism-based; settings: dose 6-24 mg/kg, time 2.0 weeks
[26] = system: Mus musculus; test: Antidepressant activity in ICR mouse model of chronic unpredictable mild stress assessed as reduction in ceramide level in cerebral cortex at 6 to 12 mg/kg, ip administered once a day for 1 week post 8 week of chronic unpredictable mild stress and measured after 1 week by ELISA; type: functional, organism-based; settings: dose 6-12 mg/kg, time 2.0 weeks
[27] = system: Mus musculus; test: Antidepressant activity in ICR mouse model of chronic unpredictable mild stress assessed as reduction in ceramide level in hippocampus at 6 to 12 mg/kg, ip administered once a day for 1 week post 8 week of chronic unpredictable mild stress and measured after 1 week by ELISA; type: functional, organism-based; settings: dose 6-12 mg/kg, time 2.0 weeks
[28] = system: Mus musculus; test: Antidepressant activity in ip dosed ICR mouse model of chronic unpredictable mild stress assessed as reduction in sphingosine-1-phosphate level in cerebral cortex administered once a day for 1 week post 8 week of chronic unpredictable mild stress and measured after 1 week by ELISA; type: functional, organism-based; settings: dose 6-12 mg/kg, time 2.0 weeks
[29] = system: Mus musculus; test: Antidepressant activity in ICR mouse model of chronic unpredictable mild stress assessed as reduction in sphingomyelin level in cerebral cortex at 6 to 12 mg/kg, ip administered once a day for 1 week post 8 week of chronic unpredictable mild stress and measured after 1 week by ELISA; type: functional, organism-based; settings: dose 6-12 mg/kg, time 2.0 weeks
[30] = system: Mus musculus; test: Antidepressant activity in ICR mouse model of chronic unpredictable mild stress assessed as reduction in sphingomyelin level in hippocampus at 6 to 12 mg/kg, ip administered once a day for 1 week post 8 week of chronic unpredictable mild stress and measured after 1 week by ELISA; type: functional, organism-based; settings: dose 6-12 mg/kg, time 2.0 weeks
[31] = system: Mus musculus; test: Antidepressant activity in ICR mouse model of chronic unpredictable mild stress assessed as reduction in oxidative stress by measuring reduction in MDA level in cerebral cortex at 6 to 12 mg/kg, ip administered once a day for 1 week post 8 week of chronic unpredictable mild stress and measured after 1 week by ELISA; type: functional, organism-based; settings: dose 6-12 mg/kg, time 2.0 weeks
[32] = system: Mus musculus; test: Antidepressant activity in ip dosed ICR mouse model of chronic unpredictable mild stress assessed as reduction in oxidative stress by measuring increase in GSH level in cerebral cortex administered once a day for 1 week post 8 week of chronic unpredictable mild stress and measured after 1 week by ELISA; type: functional, organism-based; settings: dose 6-12 mg/kg, time 2.0 weeks
[33] = system: SH-SY5Y; test: Neuroprotective activity against corticosterone induced human SH-SY5Y cells assessed as protection against corticosterone induced morphological changes measured after 24 hrs; type: functional, cell-based; settings: dose 5-20 µM
[34] = organism: Mus musculus; settings: ICR, dose 6-24 mg/kg, route ip, time 2.0 weeks
Description: In vivo inhibition of ASM in ip dosed ICR mouse model of chronic unpredictable mild stress assessed as reduction in ASM activity in hippocampus administered once a day for 1 week post 8 week of chronic unpredictable mild stress and measured after 1 week by fluorescence based analysis

[35] = organism: Mus musculus; settings: ICR, dose 6-12 mg/kg, route ip, time 2.0 weeks
Description: In vivo inhibition of ASM in ICR mouse model of chronic unpredictable mild stress assessed as increase in 5-HT uptake in hippocampus at 6 to 12 mg/kg, ip administered once a day for 1 week post 8 week of chronic unpredictable mild stress and measured after 1 week by ELISA

## O=C(NO)c1cc(-c2ccc(Br)cc2)n(-c2ccc(Cl)cc2)n1
[1]
  viability: > 78%
[2]
  Activity: Dose-Dependent Effect
[3]
  half-life at 1 µM: 111 min
[4]
  microsomal CLint at 1 µM: 15.6 µL/min/mg
[5]
  t1/2: 18.6 min
[6]
  Tmax: 15 min
[7]
  Cmax: 2590 ng/mL
[8]
  AUC(0-t) at 8 h: 921 ng·h/mL
[9]
  AUC: 928.07 ng·h/mL
[10]
  MRT inf: 15 min
[11]
  Vz: 3.29201 L/kg
[12]
  bioavailability: 39.6%
[13]
  AUC(0-inf): 3650 ng·h/mL
[14]
  AUC(0-t) at 8 h: 3640 ng·h/mL
[15]
  Cmax: 4200 ng/mL
[16]
  half-life: 50.4 min
[17]
  MRT inf: 52.8 min
[18]
  concentration at 0.5 h: 223 ng/mL
[19]
  concentration at 1 h: 31.9 ng/mL
[20]
  Kp at 0.5 h: 0.37
[21]
  Kp at 1 h: 0.57
[22]
  Activity: Active
[23]
  Activity: Active
[24]
  Activity: Active
[25]
  Activity: Active
[26]
  Activity: Active
[27]
  Activity: Active
[28]
  Activity: Dose-Dependent Effect
[29]
  Activity: Active
[30]
  Activity: Active
[31]
  Activity: Active
[32]
  Activity: Dose-Dependent Effect
[33]
  Activity: Dose-Dependent Effect
[34]
  inhibition: Dose-Dependent Effect
[35]
  inhibition: Active
